Data published in ChEMBL document CHEMBL6120948, “Design, Synthesis, and Biological Evaluation of Lysine-Stapled Peptide Inhibitors of p53-MDM2/MDMX Interactions with Potent Antitumor Activity In Vivo” (J Med Chem, 2024).
Values belong to the compound of their own block, whether it stands above or below them.

What was measured:
[1] = Toxicity in BALB/c nude mouse xenografted with human HCT-116 cells assessed as change in weight of lungs at 5 to 10 mg/kg, iv treated for 14 days on every 48 hrs; type: organism-based; details: in vivo, 336 h, dose 5-10 mg/kg, time 14 day
[2] = Toxicity in BALB/c nude mouse xenografted with human HCT-116 cells assessed as change in weight of spleen at 5 to 10 mg/kg, iv treated for 14 days on every 48 hrs; type: organism-based; details: in vivo, 336 h, dose 5-10 mg/kg, time 14 day
HCT-116 [3] = test: Induction of cell cycle arrest in human HCT-116 cells assessed as accumulation at G2 phase at 5 uM incubated for 24 hrs by PI staining based flow cytometry (reference value: 17.1 %); type: functional
[4] = Toxicity in BALB/c nude mouse xenografted with human HCT-116 cells assessed as change in weight of kidneys at 5 to 10 mg/kg, iv treated for 14 days on every 48 hrs; type: organism-based; details: in vivo, 336 h, dose 5-10 mg/kg, time 14 day
HCT-116 [5] = test: Induction of cell cycle arrest in human HCT-116 cells assessed as accumulation at G1 phase at 5 uM incubated for 24 hrs by PI staining based flow cytometry (reference value: 48.8 %); type: functional
HCT-116 [6] = test: Induction of cell cycle arrest in human HCT-116 cells assessed as accumulation at G2 phase at 10 uM incubated for 24 hrs by PI staining based flow cytometry (reference value: 17.1 %); type: functional
HCT-116 [7] = test: Induction of apoptosis in human HCT-116 cells at 25 uM incubated for 48 hrs by Annexin V-FITC/PI staining based flow cytometry relative to control; type: functional
[8] = Toxicity in BALB/c nude mouse xenografted with human HCT-116 cells assessed as histopathological change in kidneys at 5 to 10 mg/kg, iv treated for 14 days on every 48 hrs by H and E staining based analysis; type: organism-based; details: in vivo, 336 h, dose 5-10 mg/kg, time 14 day
[9] = Toxicity in BALB/c nude mouse xenografted with human HCT-116 cells assessed as histopathological change in liver at 5 to 10 mg/kg, iv treated for 14 days on every 48 hrs by H and E staining based analysis; type: organism-based; details: in vivo, 336 h, dose 5-10 mg/kg, time 14 day
[10] = Toxicity in BALB/c nude mouse xenografted with human HCT-116 cells assessed as histopathological change in lungs at 5 to 10 mg/kg, iv treated for 14 days on every 48 hrs by H and E staining based analysis; type: organism-based; details: in vivo, 336 h, dose 5-10 mg/kg, time 14 day
MCF7 = test: Antiproliferative activity against human MCF7 cells expressing wild-type p53 incubated for 72 hrs by MTT assay; type: functional, cell-based; details: MCF7, 72 h
[11] = Antiproliferative activity against HEK293T cells incubated for 72 hrs by MTT assay; type: toxicity, cell-based, HEK-293T; details: human
ZR-75-1 = test: Antiproliferative activity against human ZR-75-1 cells expressing wild-type p53 incubated for 72 hrs by MTT assay; type: functional, cell-based; details: ZR-75-1, 72 h
HCT-116 [12] = test: Induction of apoptosis in human HCT-116 cells at 50 uM incubated for 48 hrs by Annexin V-FITC/PI staining based flow cytometry relative to control; type: functional
[13] = Antiproliferative activity against human U-87 MG cells expressing wild-type p53 incubated for 72 hrs by MTT assay; type: functional, cell-based, U-87MG ATCC
HCT-116 [14] = test: Antitumor activity against human HCT-116 cells xenografted in BALB/c nude mouse at 5 mg/kg, iv treated for 14 days on every 48 hrs relative to control; type: functional; details: HCT-116, 336 h, time 14 day, read-out: TGI
HCT-116 [15] = test: Induction of cell cycle arrest in human HCT-116 cells assessed as accumulation at G1 phase at 10 uM incubated for 24 hrs by PI staining based flow cytometry (reference value: 48.8 %); type: functional
HCT-116 [16] = test: Induction of cell cycle arrest in human HCT-116 cells assessed as accumulation at S phase at 10 uM incubated for 24 hrs by PI staining based flow cytometry (reference value: 31.8 %); type: functional
HCT-116 [17] = test: Antiproliferative activity against human HCT-116 cells expressing wild-type p53 incubated for 72 hrs by MTT assay; type: functional, cell-based; details: HCT-116, 72 h
HCT-116 [18] = test: Induction of cell cycle arrest in human HCT-116 cells assessed as accumulation at G2 phase at 20 uM incubated for 24 hrs by PI staining based flow cytometry (reference value: 17.1 %); type: functional
[19] = Induction of alpha-helical conformation in phosphate buffer at pH 7 at 100 uM by CD analysis; type: physicochemical; details: pH 7, 100 µM
HCT-116 [20] = test: Induction of apoptosis in human HCT-116 cells at 100 uM incubated for 48 hrs by Annexin V-FITC/PI staining based flow cytometry relative to control; type: functional
HCT-116 [21] = test: Antitumor activity against human HCT-116 cells xenografted in BALB/c nude mouse at 10 mg/kg, iv treated for 14 days on every 48 hrs relative to control; type: functional; details: HCT-116, 336 h, time 14 day, read-out: TGI
[22] = Stability of compound in 50 percent human serum assessed as half life measured for 24 hrs by HPLC analysis; type: ADME, cell-free; details: 50% human serum
[23] = Toxicity in BALB/c nude mouse xenografted with human HCT-116 cells assessed as histopathological change in heart at 5 to 10 mg/kg, iv treated for 14 days on every 48 hrs by H and E staining based analysis; type: organism-based; details: in vivo, 336 h, dose 5-10 mg/kg, time 14 day
[24] = Antiproliferative activity against human SJSA-1 cells expressing wild-type p53 incubated for 72 hrs by MTT assay; type: functional, cell-based; details: SJSA-1, 72 h
A-375 = test: Antiproliferative activity against human A-375 cells expressing wild-type p53 incubated for 72 hrs by MTT assay; type: functional, cell-based; details: A-375, 72 h
HCT-116 [25] = test: Induction of cell cycle arrest in human HCT-116 cells assessed as accumulation at S phase at 20 uM incubated for 24 hrs by PI staining based flow cytometry (reference value: 31.8 %); type: functional
HCT-116 [26] = test: Induction of cell cycle arrest in human HCT-116 cells assessed as accumulation at S phase at 5 uM incubated for 24 hrs by PI staining based flow cytometry (reference value: 31.8 %); type: functional
[27] = Toxicity in BALB/c nude mouse xenografted with human HCT-116 cells assessed as histopathological change in spleen at 5 to 10 mg/kg, iv treated for 14 days on every 48 hrs by H and E staining based analysis; type: organism-based; details: in vivo, 336 h, dose 5-10 mg/kg, time 14 day
[28] = Toxicity in BALB/c nude mouse xenografted with human HCT-116 cells assessed as change in weight of liver at 5 to 10 mg/kg, iv treated for 14 days on every 48 hrs; type: organism-based; details: in vivo, 336 h, dose 5-10 mg/kg, time 14 day
HCT-116 [29] = test: Induction of cell cycle arrest in human HCT-116 cells assessed as accumulation at G1 phase at 20 uM incubated for 24 hrs by PI staining based flow cytometry (reference value: 48.8 %); type: functional
A549 = test: Antiproliferative activity against human A549 cells expressing wild-type p53 incubated for 72 hrs by MTT assay; type: functional, cell-based; details: A549, 72 h
[30] = Toxicity in BALB/c nude mouse xenografted with human HCT-116 cells assessed as change in weight of heart at 5 to 10 mg/kg, iv treated for 14 days on every 48 hrs; type: organism-based; details: in vivo, 336 h, dose 5-10 mg/kg, time 14 day
HeLa = test: Antiproliferative activity against human HeLa cells expressing wild-type p53 incubated for 72 hrs by MTT assay; type: functional, cell-based
HepG2 = test: Antiproliferative activity against human HepG2 cells expressing wild-type p53 incubated for 72 hrs by MTT assay; type: functional, cell-based; details: HepG2, 72 h
[31] = Toxicity in BALB/c nude mouse xenografted with human HCT-116 cells assessed as change in body weight at 5 to 10 mg/kg, iv treated for 14 days on every 48 hrs; type: organism-based; details: in vivo, 336 h, dose 5-10 mg/kg, time 14 day
HCT-116 [32] = test: Induction of cell cycle arrest in human HCT-116 cells assessed as accumulation at G1 phase at 10 uM incubated for 24 hrs by PI staining based flow cytometry (reference value: 50.7 %); type: functional
HCT-116 [33] = test: Induction of cell cycle arrest in human HCT-116 cells assessed as accumulation at S phase at 10 uM incubated for 24 hrs by PI staining based flow cytometry (reference value: 29.4 %); type: functional
HCT-116 [34] = test: Induction of cell cycle arrest in human HCT-116 cells assessed as accumulation at G1 phase at 5 uM incubated for 24 hrs by PI staining based flow cytometry (reference value: 50.7 %); type: functional
HCT-116 [35] = test: Induction of cell cycle arrest in human HCT-116 cells assessed as accumulation at G2 phase at 5 uM incubated for 24 hrs by PI staining based flow cytometry (reference value: 17.5 %); type: functional
HCT-116 [36] = test: Induction of cell cycle arrest in human HCT-116 cells assessed as accumulation at G1 phase at 20 uM incubated for 24 hrs by PI staining based flow cytometry (reference value: 50.7 %); type: functional
HCT-116 [37] = test: Induction of cell cycle arrest in human HCT-116 cells assessed as accumulation at S phase at 5 uM incubated for 24 hrs by PI staining based flow cytometry (reference value: 29.4 %); type: functional
HCT-116 [38] = test: Induction of cell cycle arrest in human HCT-116 cells assessed as accumulation at G2 phase at 20 uM incubated for 24 hrs by PI staining based flow cytometry (reference value: 17.5 %); type: functional
HCT-116 [39] = test: Induction of cell cycle arrest in human HCT-116 cells assessed as accumulation at G2 phase at 10 uM incubated for 24 hrs by PI staining based flow cytometry (reference value: 17.5 %); type: functional
HCT-116 [40] = test: Induction of cell cycle arrest in human HCT-116 cells assessed as accumulation at S phase at 20 uM incubated for 24 hrs by PI staining based flow cytometry (reference value: 29.4 %); type: functional

IC50 (MCF7): 2.99 µM
IC50 (HCT-116 [17]): 5.8 µM
Activity [19]: 11%
half-life [22]: 12 h
IC50 (A-375): 49.2 µM
IC50 (A549): 27.4 µM
IC50 (HeLa): 45.9 µM
IC50 (HepG2): > 160 µM
SMILES: CC(=O)N[C@@H](CC(C)C)C(=O)N[C@H](C(=O)N[C@@H](Cc1ccccc1)C(=O)N[C@H]1CCCCNCc2cccc(c2)CNCCCC[C@@H](C(=O)N[C@@H](CCC(N)=O)C(=O)N[C@@H](CC(C)C)C(=O)N[C@H](C(=O)N[C@@H](CO)C(=O)N[C@@H](C)C(=O)N[C@@H](C)C(N)=O)[C@@H](C)O)NC(=O)[C@H](Cc2c[nH]c3ccccc23)NC(=O)[C@H](Cc2ccc(O)cc2)NC(=O)[C@H](Cc2c[nH]cn2)NC1=O)[C@@H](C)O
Activity [1]: Non-toxic
Activity [2]: Non-toxic
Activity (HCT-116 [3]): 25.3%
Activity [4]: Non-toxic
Activity (HCT-116 [5]): 35.6%
Activity (HCT-116 [6]): 28%
Activity (HCT-116 [7]): 35.22%
Activity [8]: Non-toxic
Activity [9]: Non-toxic
Activity [10]: Non-toxic
IC50 at 72 h [11]: > 160 µM
IC50 (ZR-75-1): 2.6 µM
Activity (HCT-116 [12]): 94.4%
IC50 [13]: 3.7 µM
inhibition in vivo at 5 mg/kg (HCT-116 [14]): 13%
Activity (HCT-116 [15]): 38.1%
Activity (HCT-116 [16]): 33%
Activity (HCT-116 [18]): 31.2%
Activity (HCT-116 [20]): 93.14%
inhibition in vivo at 10 mg/kg (HCT-116 [21]): 30%
Activity [23]: Non-toxic
IC50 [24]: > 160 µM
Activity (HCT-116 [25]): 30.5%
Activity (HCT-116 [26]): 37.7%
Activity [27]: Non-toxic
Activity [28]: Non-toxic
Activity (HCT-116 [29]): 37.4%
Activity [30]: Non-toxic
Activity [31]: Non-toxic

IC50 (MCF7): 25.3 µM
IC50 (HCT-116 [17]): 14.6 µM
Activity [19]: 11%
half-life [22]: 3 h
IC50 (A-375): > 160 µM
IC50 (A549): 6.4 µM
IC50 (HeLa): 91.8 µM
IC50 (HepG2): > 160 µM
SMILES: CSCC[C@H](NC(=O)[C@H](CC(C)C)NC(=O)[C@H](CCC(N)=O)NC(=O)[C@@H]1CCCCNCc2ccc(cc2)CNCCCC[C@H](NC(=O)[C@H](Cc2ccccc2)NC(=O)[C@@H](NC(=O)[C@H](CC(C)C)NC(C)=O)[C@@H](C)O)C(=O)N[C@@H](CCC(=O)O)C(=O)N[C@@H](Cc2ccc(O)cc2)C(=O)N[C@@H](Cc2c[nH]c3ccccc23)C(=O)N1)C(=O)N[C@@H](CCC(N)=O)C(=O)N[C@@H](C)C(=O)N[C@@H](C)C(N)=O
Activity (HCT-116 [32]): 33.9%
Activity (HCT-116 [33]): 36.2%
Activity (HCT-116 [7]): 55.66%
IC50 at 72 h [11]: > 160 µM
IC50 (ZR-75-1): 7.2 µM
Activity (HCT-116 [12]): 56.51%
IC50 [13]: 7.2 µM
Activity (HCT-116 [20]): 70.13%
IC50 [24]: > 160 µM
Activity (HCT-116 [34]): 33.8%
Activity (HCT-116 [35]): 23.9%
Activity (HCT-116 [36]): 34.1%
Activity (HCT-116 [37]): 40.5%
Activity (HCT-116 [38]): 32.7%
Activity (HCT-116 [39]): 29%
Activity (HCT-116 [40]): 32.3%
